Laboratory results: PMC13586173, “Synthetic cannabinoid receptor agonists inhibit the cardiac voltage-gated potassium channel hERG” (Acta Pharmacologica Sinica, 2026)
Where two headings read alike, the source gives them in different places.

What was measured:
hERG (KV11.1) = hERG (KV11.1) (Homo sapiens, UniProt Q12809); assay: Automated planar patch-clamp (APC, QPatch II 48), voltage-ladder protocol, CHO cells stably expressing human hERG; details: for effect on Gmax of hERG (in words): APC concentration-response, 1.11 to 30 µM; for hERG channel Efficacy (max reduction in Gmax) Gmin: 1 = no reduction of Gmax, 0 = complete reduction
Chain of hERG (KV11.1) (Q12809 whole entry): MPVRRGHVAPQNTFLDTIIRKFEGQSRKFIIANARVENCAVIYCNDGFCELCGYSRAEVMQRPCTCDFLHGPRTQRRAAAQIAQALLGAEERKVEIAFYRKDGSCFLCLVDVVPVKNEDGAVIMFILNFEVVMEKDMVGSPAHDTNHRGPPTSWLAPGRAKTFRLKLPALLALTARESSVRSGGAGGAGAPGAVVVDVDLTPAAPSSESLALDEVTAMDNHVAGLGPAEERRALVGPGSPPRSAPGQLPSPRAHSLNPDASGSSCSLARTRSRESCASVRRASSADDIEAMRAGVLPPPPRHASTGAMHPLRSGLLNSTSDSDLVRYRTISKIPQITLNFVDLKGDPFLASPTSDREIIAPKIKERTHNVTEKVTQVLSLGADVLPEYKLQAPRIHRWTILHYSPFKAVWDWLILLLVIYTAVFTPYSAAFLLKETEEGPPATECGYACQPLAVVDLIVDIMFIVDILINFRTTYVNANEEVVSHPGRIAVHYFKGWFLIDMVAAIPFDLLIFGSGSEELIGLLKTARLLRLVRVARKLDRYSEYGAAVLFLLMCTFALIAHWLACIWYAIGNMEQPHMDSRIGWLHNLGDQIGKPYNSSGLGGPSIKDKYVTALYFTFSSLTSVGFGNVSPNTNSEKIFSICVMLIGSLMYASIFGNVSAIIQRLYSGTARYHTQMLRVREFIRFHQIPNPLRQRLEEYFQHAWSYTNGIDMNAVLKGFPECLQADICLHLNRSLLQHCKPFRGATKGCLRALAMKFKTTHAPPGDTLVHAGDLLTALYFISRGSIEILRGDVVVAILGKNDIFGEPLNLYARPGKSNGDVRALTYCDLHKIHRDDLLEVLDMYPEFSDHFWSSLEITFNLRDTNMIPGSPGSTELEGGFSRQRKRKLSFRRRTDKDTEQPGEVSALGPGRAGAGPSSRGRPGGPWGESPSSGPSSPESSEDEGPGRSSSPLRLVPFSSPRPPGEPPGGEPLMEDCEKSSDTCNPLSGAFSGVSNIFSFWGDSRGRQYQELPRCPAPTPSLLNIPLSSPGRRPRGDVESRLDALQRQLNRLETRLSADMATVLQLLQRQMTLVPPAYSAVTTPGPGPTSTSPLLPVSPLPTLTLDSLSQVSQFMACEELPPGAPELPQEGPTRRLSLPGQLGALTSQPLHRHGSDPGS
Description: To assess the effect of a large set of SCRAs on hERG (see SI Table I and SI Fig. S1 for a list of the 36 included SCRAs and corresponding structures), we used the automated planar patch-clamp (APC) technique on mammalian Chinese hamster ovary (CHO) cells stably expressing human hERG. […] We employed a voltage-ladder protocol to obtain information on SCRA effects on the channel’s voltage dependence of activation (V50) and maximal conductance (Gmax) (both determined from Boltzmann fits of the instantaneous tail currents; see Methods for details).
Stably expressing cell lines “CHO-hERG DUO” (here referred to as hERG; gene: KCNH2) and “CHO-KVLQT1/mink” (here referred to as KV7.1/KCNE1; gene: KCNQ1/KCNE1), (B’SYS GmBH, Witterswil, Switzerland) were used to study whole-cell K^+ currents on a QPatch II 48 APC system (Sophion Bioscience A/S, Ballerup, Denmark). Cell culture and passaging were performed in accordance with standard operating procedures. Cells were harvested in serum-free medium with Detachin^TM (Genlantis, CA, USA) immediately prior to experiments. For MPC on transient cell lines, CHO-K1 CCL-61 cells (ATCC, Manassas, VA, USA) were cultured in Ham’s F-12 medium supplemented with 10% fetal bovine serum (FBS) and 100 U/mL penicillin–100 µg/mL streptomycin (Gibco, Thermo Fisher Scientific, Waltham, MA, USA). Transfection was carried out using JetOPTIMUS® reagent (Polyplus, Strasbourg, France) according to the manufacturer’s protocol. Briefly, 80,000 cells were seeded per well in a 12-well plate and transfected with 300 ng of pcDNA3-GFP plasmid, 700 ng of pcDNA3-hERG plasmid with either the wild-type or mutant channels (S624A, S649A, or Y652A), and […] of JetOPTIMUS. After 8 h, cells were detached and reseeded at a density of 30,000 cells per well onto several poly-D-lysine-coated glass coverslips placed in a 12-well plate. For the CB1 receptor activity assay, the AequoScreen® recombinant Chinese hamster ovary (CHO) K1 cell line, stably expressing the human CB1 receptor (ES-110-A), was used (Revvity, Sollentuna, Sweden).
Automated patch-clamp recordings were performed at 22 °C. Freshly harvested cell suspensions (2–3 million cells/mL) were prepared for experiments by the QPatch II 48 automated cell preparation unit. Cells were centrifuged for 150 s at 150 × g and washed twice with the extracellular recording solution. Cells were handled by the integrated pipetting robot and added to the 48 experiment sites on the planar patch-clamp consumable QPlate. Each experiment site contained an individual pair of recording electrodes and a silicon/glass biochip embedded in the flow channels. Single-cell patch recordings (n = 1 is defined as one single-cell patch) and population patch recordings (up to 10 cells per well, n = 1 is defined as one population patch) were performed for hERG and for KV7.1/KCNE1, respectively. Cells were applied, positioned and sealed to the patch holes by a mild suction protocol; whole-cell access was then achieved by a stronger suction pulse.
The intracellular solution contained (in mM): 100 KCl, 4.3 CaCl2, 1.4 MgCl2, 25/10 KOH/EGTA, 24 KF, 10 HEPES, and 4 Mg-ATP (hERG) or 4 Na-ATP (KV7.1/KCNE1). […] The compounds were pre-diluted in DMSO, and the final concentration of DMSO (0.3%) was equal in all recording solutions to control for vehicle effects. The compounds made no contact with plastics following dilution in extracellular solution.
An overview of experimental conditions is provided in SI Table VII, Square voltage pulses in a voltage ladder protocol were used to study current/voltage (I(V)) relationships. Each voltage protocol was first run three times in the presence of vehicle (extracellular solution supplemented with 0.3% DMSO), the 3rd serving as the baseline. Voltage protocols were repeated in the presence of 4 cumulatively rising concentrations of test compound, followed by application of vehicle for recovery.

human CB1 receptor = molecular target: T1, human CB1 receptor (Homo sapiens, UniProt P21554); assay: AequoScreen intracellular calcium release assay, CHO-K1 cells stably expressing CB1; assay type: cell-based; details: n ≥ 3 (JWH-030 n = 2); for CB1 receptor Efficacy Emax: normalized to maximum of JWH-018
T1 construct: host or cells: CHO-K1 stably expressing CB1, apoaequorin and Gα16
T1 sequence (P21554 whole entry): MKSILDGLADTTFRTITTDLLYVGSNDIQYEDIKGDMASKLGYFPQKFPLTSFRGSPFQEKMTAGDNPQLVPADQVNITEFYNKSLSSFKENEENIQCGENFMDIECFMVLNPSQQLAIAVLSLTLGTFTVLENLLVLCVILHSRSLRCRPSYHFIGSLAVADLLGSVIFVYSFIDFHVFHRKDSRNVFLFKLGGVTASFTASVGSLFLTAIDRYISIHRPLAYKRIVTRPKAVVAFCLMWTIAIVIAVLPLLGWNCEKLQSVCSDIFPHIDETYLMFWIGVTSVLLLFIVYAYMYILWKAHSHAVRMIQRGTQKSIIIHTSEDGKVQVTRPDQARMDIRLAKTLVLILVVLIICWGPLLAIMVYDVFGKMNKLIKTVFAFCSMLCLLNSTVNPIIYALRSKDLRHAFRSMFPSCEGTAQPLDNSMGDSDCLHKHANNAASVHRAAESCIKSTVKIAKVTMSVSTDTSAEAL

KV7.1/KCNE1 = KV7.1/KCNE1 (Homo sapiens, UniProt P51787); assay: Automated patch-clamp (APC, population patch), CHO cells stably expressing human KV7.1/KCNE1; assay type: cell-based; details: for KV7.1/KCNE1 channel Efficacy (max reduction in Gmax) Gmin, marked *: * Greatest efficacy achieved with a concentration between 10 and 30 µM (no fit); for KV7.1/KCNE1 channel Efficacy (max reduction in Gmax) Gmin: 1 = no reduction of Gmax, 0 = complete reduction
Chain of KV7.1/KCNE1 (P51787 whole entry): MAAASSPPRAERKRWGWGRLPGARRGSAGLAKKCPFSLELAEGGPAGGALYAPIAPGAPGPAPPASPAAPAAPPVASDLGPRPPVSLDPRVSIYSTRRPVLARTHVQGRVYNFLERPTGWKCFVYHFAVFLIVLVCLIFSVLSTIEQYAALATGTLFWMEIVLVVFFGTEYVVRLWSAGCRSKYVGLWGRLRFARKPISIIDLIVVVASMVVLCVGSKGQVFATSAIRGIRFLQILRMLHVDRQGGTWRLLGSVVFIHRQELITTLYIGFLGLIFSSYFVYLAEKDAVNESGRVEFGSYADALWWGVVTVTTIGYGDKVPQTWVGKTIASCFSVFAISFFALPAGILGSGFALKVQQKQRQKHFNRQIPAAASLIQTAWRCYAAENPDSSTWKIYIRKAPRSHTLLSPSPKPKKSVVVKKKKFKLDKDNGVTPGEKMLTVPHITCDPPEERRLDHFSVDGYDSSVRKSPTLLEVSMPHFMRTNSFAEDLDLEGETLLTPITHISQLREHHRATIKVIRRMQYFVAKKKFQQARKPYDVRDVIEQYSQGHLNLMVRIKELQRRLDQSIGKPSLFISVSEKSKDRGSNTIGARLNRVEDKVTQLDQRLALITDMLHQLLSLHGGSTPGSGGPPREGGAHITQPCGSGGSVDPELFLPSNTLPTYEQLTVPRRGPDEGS
Protocol: Both hERG and KV7.1/KCNE1 contribute to cardiomyocyte repolarization (Fig. 1g). Inhibition of KV7.1/KCNE1 alone can be proarrhythmic. Moreover, under conditions with impaired hERG function, upregulation of KV7.1/KCNE1 has been proposed to partially compensate for the loss of hERG [38, 39]. […] To assess if SCRAs also affect KV7.1/KCNE1, we used mammalian CHO cells stably expressing human KV7.1/KCNE1. […] At 10 µM, 7 of the SCRAs caused a significant positive shift in V50 (Fig. 5e), with the largest shift induced by MDMB-[…] (ΔV50 = +10.3 ± 1.6 mV).
Automated patch-clamp recordings were performed at 22 °C.
For the KV7.1/KCNE1 voltage ladder protocol (SI Table VII) the solutions were present for 60 s before recording started. KV7.1/KCNE1 cells were kept at a holding voltage of −90 mV, with brief hyperpolarizing steps to −100 mV for 540 ms (to calculate ohmic leakage). […] The time between compound application and the first voltage protocol was 60 s. Time between sweeps was 15 s. The voltage ladder protocol was executed every 220 s.
For Gmax (rel.), N was set to –1. For ΔV50, N was set to 1.

[1] = read-out: hERG channel Potency IC50 (Gmax reduction), APC, 22 °C, best fit
[2] = normalized to median EC50 of JWH-018, read-out: CB1 receptor Potency EC50
[3] = experimentally observed effect of 10 µM, used in ORd simulation

Row | SMILES | effect on Gmax of hERG (in words) (hERG (KV11.1)) | hERG channel Efficacy (max reduction in Gmax) Gmin (hERG (KV11.1); best fit, APC, 22 °C) | IC50 (hERG (KV11.1); [1]) | CB1 receptor Efficacy Emax (human CB1 receptor) | EC50 (human CB1 receptor; [2]) | KV7.1/KCNE1 channel Efficacy (max reduction in Gmax) Gmin, marked * (KV7.1/KCNE1) | IC50 (KV7.1/KCNE1; APC, best fit, read-out: KV7.1/KCNE1 channel Potency IC50 (Gmax reduction)) | KV7.1/KCNE1 channel Efficacy (max reduction in Gmax) Gmin (KV7.1/KCNE1; best fit) | IC50 (hERG (KV11.1)) | remaining IKr (hERG Gmax) (hERG (KV11.1); [3]) | EC50 (human CB1 receptor; CB1 receptor Potency EC50, normalized to median EC50 of JWH-018) | IC50 (KV7.1/KCNE1) | remaining IKs (KV7.1/KCNE1 Gmax) (KV7.1/KCNE1; [3]) | Gmax effect on hERG versus KV7.1/KCNE1 (in words) (KV7.1/KCNE1; 10 µM, both channels by APC)
1 | C=CCCCn1nc(C(=O)NC(C(N)=O)C(C)(C)C)c2ccccc21 (stereo not drawn) [ADB-4en-PINACA] | no or limited effects | 0.52 | 9100 nM | 117 % JWH-018 | 17.4 nM | 1.13 |  |  |  |  |  |  |  | 
2 | CCCCn1nc(C(=O)NC(C(N)=O)C(C)(C)C)c2cc(Br)ccc21 (stereo not drawn) [ADB-5'Br-BUTINACA] |  | 0.36 | 40100 nM | 110 % JWH-018 | 18 nM | 0.80 |  |  |  |  |  |  |  | 
3 | CC(C)(C)[C@H](NC(=O)c1n[nH]c2ccc(Br)cc12)C(N)=O [ADB-5'Br-INACA] | no or limited effects | 0.70 | 24500 nM | 111 % JWH-018 | 2290 nM | 1.04 |  |  |  |  |  |  |  | 
4 | CC(C)(C)C(NC(=O)c1cn(CC2CCCCC2)c2ccccc12)C(N)=O (stereo not drawn) [ADB-CHMICA] |  | 0.48 | 5200 nM | 110 % JWH-018 | 15.7 nM |  | 13400 nM | 0.4 |  |  |  |  |  | 
5 | CC(C)(C)[C@H](NC(=O)c1nn(Cc2ccc(F)cc2)c2ccccc12)C(N)=O [ADB-FUBINACA] |  | 0.25 | 13700 nM | 106 % JWH-018 | 4.97 nM | 0.81 |  |  |  |  |  |  |  | 
6 | CCCCCCn1nc(C(=O)NC(C(N)=O)C(C)(C)C)c2ccccc21 (stereo not drawn) [ADB-HEXINACA] |  | 0.037 |  | 117 % JWH-018 |  |  |  | 0.41 | 15800 nM | 63% | 39.4 nM | 1990 nM | 52% | 
7 | O=C(c1cccc2ccccc12)c1cn(CCCCCF)c2ccccc12 [AM-2201] |  | 0.38 | 1300 nM | 99.7 % JWH-018 | 25.8 nM | 0.92 |  |  |  |  |  |  |  | effects only on hERG
